Source: paper PMC5187537, “Antioxidant Activity of Oat Proteins Derived Peptides in Stressed Hepatic HepG2 Cells” (Antioxidants, 2016)
Peptide text beside a SMILES is read from it.

Columns and labels:
HepG2 cells = assay: MTT cytotoxicity assay; assay type: cell-based, Human; conditions: 24 h
Procedure: Human hepatocellular carcinoma (HepG2) cells were purchased from the American Type Culture Collection (ATCC; Manassas, VA, USA). They were cultured at 37 °C in a humidified incubator with 5% CO2 and 95% air. Dulbecco’s Minimal Essential Media (DMEM) supplemented with 10% (v/v) Fetal Bovine Serum was used for the maintenance of cells. […] The MTT (3-(4,5-dimethylthiazol-2-yl)-2,5-diphenyltetrazolium bromide) assay, as described in an earlier research, was used for cytotoxicity and cytoprotective tests. […] Following another 24 h incubation, cells were washed twice with 200 µL of PBS. Ten µL of MTT solution (5 mg/mL in PBS) and 100 µL of media were added to each well. After 1 h, MTT solution was removed, and 50 µL DMSO were added. Absorbances were recorded at 570 nm with 630 nm background subtraction using a BioTek Epoch™ microplate reader (Fisher Scientific, Nepean, ON, Canada). Untreated cells were used as negative control (NC) and cells treated with only AAPH were used as positive control (PC).

[1] = test system: intracellular ROS of HepG2 cells; assay: Intracellular reactive oxygen species, DCFH2-DA assay; assay type: cell-based, Human; conditions: 100 µM peptide 24 h, then 20 mM AAPH 24 h, 40 µM DCFH2-DA, fluorescence 60 min
Procedure: The measurement of intracellular ROS was determined using a method described by Wolfe and Rui, with modifications. HepG2 cells were seeded at 4 × 10^4 cells/well in a 96-well tissue culture plate and were treated for 24 h with 100 µM of peptide dissolved in media, with the exception of NC and PC controls. Media was removed, cells washed twice with PBS, incubated (24 h) with 20 mM AAPH and washed again with PBS. Two hundred µL of 40 µM DCFH2-DA dissolved in buffer was added, and fluorescent intensity was immediately recorded at 2 min intervals for a total of 60 min. The percentage increase in fluorescent intensity was calculated as shown in Equation (1). (1) Fluorescent increase (%)=Final reading−Initial reading/Initial reading×100

[2] = Oxygen radical absorbance capacity (ORAC) assay; conditions: fluorescein 0.08 µM, AAPH 150 mM, 37 °C, 50 min, potassium phosphate buffer pH 7.4 75 mM, peptides 100 and 200 µM; triplicate, mean ± STDEV
Procedure: The ORAC assay was performed as previously described. The decay of fluorescein (0.08 µM) by AAPH (150 mM) at 37 °C was recorded at 1 min intervals over 50 min using a BioTek™ FL × 800™ fluorescent microplate reader (Fisher Scientific, Nepean, ON, Canada) with fluorescence filters (excitation 485/20 nm, emission 528/20 nm). Potassium phosphate buffer (pH 7.4, 75 mM) was used to dissolve peptides (100 and 200 µM) and Trolox standards (6.25–100 µM). Data analysis was done with Gen5^TM software (Fisher Scientific, Nepean, ON, Canada), and ORAC values were expressed as µM Trolox Equivalent (TE)/µM peptide using the standard curve.

[3] = test system: glutathione (GSH) of HepG2 cells; assay: Cellular glutathione, enzymatic recycling method; assay type: cell-based, Human; conditions: 100 µM peptide 24 h, then AAPH 24 h, p < 0.05
Procedure: (§1) Cells were seeded at 1 × 10^6 cells/plate in 60 mm tissue culture plates and allowed to grow for 24 h. In each plate, cells were washed twice with 4 mL of PBS (pH 7.2), and treated with 4 mL peptide samples (P1, P2, P6, P7) dissolved in culture media at 50 or 100 µM for 24 h. After removal of peptide solutions, cells were washed twice with 4 mL of PBS/plate and treated with 4 mL of […] dissolved in culture media and allowed to incubate for 24 h. Cells in each culture plate were harvested by incubation (5 min) with 0.5 mL of 0.25% trypsin, addition of 1 mL of culture media and centrifugation at 1000× g for 5 min. Cell pellets were washed with ice cold PBS (500 µL each) until no pink color was observed, re-suspended in ice cold PBS (300 µL) for the superoxide dismutase (SOD) assay, 500 µL for glutathione peroxidase (GPx) and catalase (CAT) assays. For total glutathione assay, 300 µL of 5% ice cold sulfosalicylic acid bubbled with 100% nitrogen was used for cell lysis. Cells were lysed by sonication on ice for 1 min using a probe-type sonicator (Vibra-Cell, Sonics and Materials Inc., Newtown, CT, USA) pulsing at 15 s on and 10 s off cycles. Following centrifugation of cell lysate at 13,000× g (4 °C), pellets containing cell debris were discarded, while supernatants were used for determination of glutathione content. Protein contents were determined using a modified Lowry assay.
The assay was based on the enzymatic recycling method adjusted for 96-well plates. All solutions were prepared in sodium phosphate buffer (125 mM, pH 7.5) that contained 6.3 mM EDTA (ethylenediaminetetraacetic acid). In summary, 60 µL of 0.35 mM NADPH and 10 µL of 6 mM DTNB were added to wells, this was followed by the addition of 20 µL cell lysate or glutathione (GSH) standard. To initiate the reaction, 10 µL of glutathione reductase (5 IU/mL) was added and the rate of reaction between GSH from cell lysate and DTNB was measured at 412 nm. Total glutathione of cell lysates was calculated based on a standard curve of glutathione.

[4] = test system: superoxide dismutase (SOD); assay: Superoxide dismutase activity of lysates of AAPH-stressed cells; assay type: cell-based, Human; conditions: 50 and 100 µM peptide 24 h, then AAPH 24 h
Procedure: as §1
The SOD activity was measured based on the rate of reduction of nitroblue tetrazolium (2.24 mM) to formazan by xanthine oxidase (13.2 U/mL) at 560 nm. Eight concentrations of each cell extract ([…] protein/mL) or SOD standard (2–500 ng/mL) were used to obtain inhibition curves. Specifically, 20 µL of cell sample, or buffer (blank) was mixed with 160 µL of assay solution, and 20 µL of xanthine oxidase was added to initiate the reaction. The reduction of nitroblue tetrazolium to blue formazan by O2^−• generated in situ was followed at 560 nm. SOD activities were calculated and expressed as units per milligram of protein.

[5] = test system: glutathione peroxidase (GPx); assay: Glutathione peroxidase activity of lysates of AAPH-stressed cells; assay type: cell-based, Human; conditions: then AAPH 24 h; for Effect on GPx activity of AAPH-stressed cells: 50 µM peptide 24 h; for Increase of GPx activity above that of normal cells: 100 µM peptide 24 h, p < 0.05
Procedure: as §1
The activity of GPx was determined as previously described in a 96-well plate. Briefly, in each well, 187.5 µL of potassium phosphate buffer was mixed with 12.5 µL NADPH (4 mM) solution and 25 µL of cell lysates or buffer (blank), and incubated at 30 °C for 5 min. Then, 100 µL of 0.15% cumene hydroperoxide was added in each well to begin the reaction. The rate of disappearance of NADPH was followed at 340 nm for 5 min. The activity was expressed as Units of GPx activity/mg protein.

CC[C@H](C)[C@H](NC(=O)[C@H](Cc1ccc(O)cc1)NC(=O)[C@@H](NC(=O)[C@H](CC(C)C)NC(=O)CN)C(C)C)C(=O)N[C@@H](CC(C)C)C(=O)O [P2] (H-GLVYIL-OH; N-terminus and C-terminus assumed)
Increase in cell viability (growth promotion) (HepG2 cells; peptide alone, no AAPH, MTT (Figure 2A)): ~2.7 fold | Concentration above which cytotoxic (HepG2 cells; tested at 20–500 µM, MTT): above 450 µM | Intracellular reactive oxygen species [1]: reduced production of intracellular reactive oxygen species | ORAC value (peroxyl radical scavenging activity) [2]: 0.67 ± 0.02 µM TE/µM | GSH concentration relative to normal cells [3]: further increased | Effect on SOD activity compared to AAPH treated cells only (PC) [4]: increase SOD to a level equivalent to that of normal cells | Effect on GPx activity of AAPH-stressed cells [5]: completely restored the activity | Increase of GPx activity above that of normal cells [5]: 30.2%

CC[C@H](C)[C@H](NC(=O)[C@H](Cc1ccc(O)cc1)NC(=O)[C@@H](NC(=O)[C@H](CC(C)C)NC(=O)CNC(=O)[C@@H]1CCCN1C(=O)[C@H](C)NC(=O)[C@H](CC(N)=O)NC(=O)[C@H](Cc1c[nH]cn1)NC(=O)[C@@H](N)Cc1ccc(O)cc1)C(C)C)C(=O)N[C@@H](CC(C)C)C(=O)O [P6] (H-YHNAPGLVYIL-OH; N-terminus and C-terminus assumed)
Effect on HepG2 cell viability compared to NC (HepG2 cells; 50 and 100 µM peptide, MTT, p > 0.05): did not affect HepG2 cells viability | Intracellular reactive oxygen species [1]: reduced production of intracellular reactive oxygen species | ORAC value (peroxyl radical scavenging activity) [2]: 0.14–0.61 µM TE/µM | GSH concentration relative to normal cells [3]: further increased | Effect on SOD activity compared to AAPH treated cells only (PC) [4]: did not affect the activity | Effect on GPx activity of AAPH-stressed cells [5]: completely restored the activity | Increase of GPx activity above that of normal cells [5]: 38.6%
